Assay results as given in patent US8889591B2, “Herbicidal compositions comprising 4-amino-3-chloro-5-fluoro-6-(4-chloro-2-fluoro-3-methoxyphenyl)pyridine-2-carboxylic acid or a derivative thereof and bromobutide, daimuron, oxaziclomefone or pyributicarb” (Dow Agrosciences LLC, priority 2012, dated 2014).

Experiments:
LEFCH = assay: Postemergence foliar-applied greenhouse weed control, direct-seeded rice system; format: in vivo, Leptochloa chinensis (L.) Nees
Text: (§1) Seeds or nutlets of the desired test plant species were planted in a soil matrix prepared by mixing a loam or sandy loam soil (e.g., 28.6 percent silt, 18.8 percent clay, and 52.6 percent sand, with a pH of about 5.8 and an organic matter content of about 1.8 percent) and calcareous grit in an 80 to 20 ratio. The soil matrix was contained in plastic pots with a volume of 1 quart and a surface area of 83.6 square centimeters (cm^2). When required to ensure good germination and healthy plants, a fungicide treatment and/or other chemical or physical treatment was applied. The plants were grown for 8-22 days in a greenhouse with an approximate 14 h photoperiod which was maintained at about 29° C. during the day and 26° C. during the night. Nutrients (Peters Excel® 15-5-15 5-Ca 2-Mg and iron chelate) were applied in the irrigation solution as needed and water was added on a regular basis. Supplemental lighting was provided with overhead metal halide 1000-Watt lamps as necessary. The plants were employed for testing when they reached the first through fourth true leaf stage.
(§2) Treatments consisted of the acid or esters of 4-amino-3-chloro-5-fluoro-6-(4-chloro-2-fluoro-3-methoxy-phenyl)pyridine-2-carboxylic acid (Compound A), each formulated as an SC (suspension concentrate), and various herbicidal components alone and in combination. Forms of compound A were applied on an acid equivalent basis.
(§3) Other herbicidal components were applied on an active ingredient basis and included diamuron formulated as an EC (emulsifiable concentrate) and oxaziclomefone (technical grade material).
(§4) Treatment requirements were calculated based upon the rates being tested, the concentration of active ingredient or acid equivalent in the formulation, and a 12 mL application volume at a rate of 187 L/ha.
(§5) For treatments comprised of formulated compounds, measured amounts of compounds were placed individually in 25 mL glass vials and diluted in a volume of 1.25% (v/v) Agri-Dex® crop oil concentrated to obtain 12× stock solutions. […] Application solutions were prepared by adding an appropriate amount of each stock solution (e.g., 1 mL) and diluted to the appropriate final concentrations with the addition of 10 mL of an aqueous mixture of 1.25% (v/v) crop oil concentrate so that the final spray solutions contained 1.25+/−0.05% (v/v) crop oil concentrate.
(§6) For treatments comprised of technical compounds, weighed amounts can be placed individually in 25 mL glass vials and dissolved in a volume of 97:3 v/v acetone/DMSO to obtain 12× stock solutions. […] Application solutions can be prepared by adding an appropriate amount of each stock solution (e.g., 1 mL) and diluted to the appropriate final concentrations with the addition of 10 mL of an aqueous mixture of 1.5% (v/v) crop oil concentrate so that the final spray solutions contain 1.25% (v/v) crop oil concentrate. When technical materials are used, the concentrated stock solutions can be added to the spray solutions so that the final acetone and DMSO concentrations of the application solutions are 16.2% and 0.5%, respectively.
(§7) For treatments comprised of formulated and technical compounds, weighed amounts of the technical materials were placed individually in 25 mL glass vials and dissolved in a volume of 97:3 v/v acetone/DMSO to obtain 12× stock solutions, and measured amounts of the formulated compounds were placed individually in 25 mL glass vials and diluted in a volume of 1.5% (v/v) crop oil concentrate or water to obtain 12× stock solutions. […] Application solutions were prepared by adding an appropriate amount of each stock solution (e.g., 1 mL) and diluted to the appropriate final concentrations with the addition of an appropriate amount of an aqueous mixture of 1.5% (v/v) crop oil concentrate so that the final spray solutions contained 1.25% (v/v) crop oil concentrate. […]

BRAPP = assay: as above; format: in vivo
Text: as §1, §2, §3, §4, §5, §6, §7

[1] = Compound A Benzyl Ester 4.38 gae/ha alone
[2] = Compound A Benzyl Ester 8.75 gae/ha alone

COc1c(Cl)ccc(-c2nc(C(=O)OCc3ccccc3)c(Cl)c(N)c2F)c1F [Compound A Benzyl Ester]
Visual Weed Control (%) - 20 DAA LEFCH Obs (LEFCH; [1]): 10%
Visual Weed Control (%) - 20 DAA LEFCH Obs (LEFCH; [2]): 20%
Visual Weed Control (%) - 20 DAA LEFCH Obs (LEFCH; Compound A Benzyl Ester 17.5 gae/ha alone): 50%
Visual Weed Control (%) - 20 DAA BRAPP Obs (BRAPP; [1]): 50%
Visual Weed Control (%) - 20 DAA BRAPP Obs (BRAPP; [2]): 70%
